# According to patent US9458153B2, “Dihydroquinolizinones for the treatment and prophylaxis of hepatitis B virus infection” (Hoffmann-La Roche Inc., priority 2014, dated 2016):
# Experiments:
# [1] = system: HBsAg; assay: HBsAg assay (chemiluminescence immunoassay of secreted HBsAg in HepG2.2.15 culture supernatant); assay type: cell-based, HBV; settings: HepG2.2.15 cells, CLIA kit
# Method in brief: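 HepG2.2.15 cells, which constitutively express HBV, were seeded in duplicate and treated with three-fold serial compound dilutions at 1% DMSO final. Secreted HBsAg in culture supernatant was measured semi-quantitatively by chemiluminescence immunoassay. IC50 was extrapolated from dose-response curves.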
# [2] = system: HBV DNA; assay: HBV DNA assay (real-time qPCR/TaqMan of extracellular HBV DNA copy number, HepG2.2.15 cells); assay type: cell-based; settings: Anti HBV DNA production activity in HepG2.2.15 cells, supernatant collected six days after initial administration
# Experimental: HepG2.2.15 cells (Acs et al. Proc Natl Acad Sci USA, 84, (1987), 4641-4), a constitutively HBV-expressing cell line were cultured in DMEM+Glutamax-I medium (Invitrogen, Carlsbad, Calif., USA), supplemented with 10% fetal bovine serum (Invitrogen) and G418 (Invitrogen) at a final concentration of 200 mg/L and maintained in 5% CO2 at 37° C.
# The assay employs real-time qPCR (TaqMan) to directly measure extracellular HBV DNA copy number. HepG2.2.15 cells were plated in 96-well microtiter plates. Only the interior wells were utilized to reduce “edge effects” observed during cell culture, the exterior wells were filled with complete medium to help minimize sample evaporation. On the following day, the HepG2.2.15 cells were washed and the medium was replaced with complete medium containing various concentrations of a test compound in triplicate. 3TC was used as the positive control, while media alone was added to cells as a negative control (virus control, VC). Three days later, the culture medium was replaced with fresh medium containing the appropriately diluted drug. Six days following the initial administration of the test compound, the cell culture supernatant was collected, treated with pronase and then used in a real-time qPCR/TaqMan assay to determine HBV DNA copy numbers. Antiviral activity was calculated from the reduction in HBV DNA levels (IC50).
# The compounds of the present invention were tested for their capacity to inhibit HBV DNA as described herein.
# [3] = HBsAg secretion reduced by 50% vs no drug control
# [4] = Hepatitis B virus, HepG2.2.15, 144 h
# [5] = Hepatitis B virus, HepG2.2.15, HBsAg secretion reduced by 50% vs no drug control
SMILES,"IC50 [1, 3]","IC50 [2, 4]",IC50 [2],"IC50 [1, 5]"
"COCCCOc1cc2c(cc1OC)-c1cc(=O)c(C(=O)O)cn1C(C(C)C)C2 (single isomer, unassigned; (+)) [Example 124, (+)-10-methoxy-6-isopropyl-9-(3-methoxypropoxy)-2-oxo-6,7-dihydrobenzo[a]quinolizine-3-carboxylic acid]",2 nM,< 0.1 nM,,
"CCCOc1cc2c(cc1OC)-c1cc(=O)c(C(=O)O)cn1C(CC)C2 (stereo not drawn) [Example 78, 6-ethyl-10-methoxy-2-oxo-9-propoxy-6,7-dihydrobenzo[a]quinolizine-3-carboxylic acid]",,,4 nM,
"CCOc1cc2c(cc1Cl)-c1cc(=O)c(C(=O)O)cn1C(CC)C2 (single isomer, unassigned; (-)) [Example 119, (−)-10-chloro-9-ethoxy-6-ethyl-2-oxo-6,7-dihydrobenzo[a]quinolizine-3-carboxylic acid]",330 nM,2 nM,,
"CCC1Cc2cc(OCC3CC3)c(OC)cc2-c2cc(=O)c(C(=O)O)cn21 (stereo not drawn) [Example 30, 9-(cyclopropylmethoxy)-6-ethyl-10-methoxy-2-oxo-6,7-dihydrobenzo[a]quinolizine-3-carboxylic acid]",24 nM,2 nM,,
"COc1cc2c(cc1OC)-c1cc(=O)c(C(=O)O)cn1C(C(C)C)C2 (single isomer, unassigned; (+)) [Example 99, (+)-6-isopropyl-9,10-dimethoxy-2-oxo-6,7-dihydrobenzo[a]quinolizine-3-carboxylic acid]",16 nM,3 nM,,
"COCCCOc1cc2c(cc1OC)-c1cc(=O)c(C(=O)O)cn1C(C1(C)CC1)C2 (single isomer, unassigned; (+)) [Example 209, (+)-10-methoxy-9-(3-methoxypropoxy)-6-(1-methylcyclopropyl)-2-oxo-6,7-dihydrobenzo[a]quinolizine-3-carboxylic acid]",1 nM,0.3 nM,,
"COc1cc2c(cc1OCCN1CCOCC1)CC(C(C)(C)C)n1cc(C(=O)O)c(=O)cc1-2 (single isomer, unassigned; (+)) [Example 190, (+)-6-tert-butyl-10-methoxy-9-(2-morpholinoethoxy)-2-oxo-6,7-dihydrobenzo[a]quinolizine-3-carboxylic acid]",6 nM,2 nM,,
"COCCOc1cc2c(cc1Cl)-c1cc(=O)c(C(=O)O)cn1C(C(C)C)C2 (single isomer, unassigned; (+)) [Example 108, (+)-10-chloro-6-isopropyl-9-(2-methoxyethoxy)-2-oxo-6,7-dihydrobenzo[a]quinolizine-3-carboxylic acid]",3 nM,2 nM,,
"CCC1Cc2cc(OCC(F)(F)F)c(OC)cc2-c2cc(=O)c(C(=O)O)cn21 (single isomer, unassigned; (+)) [Example 11, (+)-6-ethyl-10-methoxy-2-oxo-9-(2,2,2-trifluoroethoxy)-6,7-dihydrobenzo[a]quinolizine-3-carboxylic acid]",17 nM,4 nM,,
"CCC1Cc2cc(OCC(C)C)c(OC)cc2-c2cc(=O)c(C(=O)O)cn21 (stereo not drawn) [Example 33, 6-ethyl-9-isobutoxy-10-methoxy-2-oxo-6,7-dihydrobenzo[a]quinolizine-3-carboxylic acid]",8 nM,3 nM,,
"COCCCOc1cc2c(cc1Cl)-c1cc(=O)c(C(=O)O)cn1C(C1(C)CC1)C2 (single isomer, unassigned; (+)) [Example 206, (+)-10-chloro-9-(3-methoxypropoxy)-6-(1-methylcyclopropyl)-2-oxo-6,7-dihydrobenzo[a]quinolizine-3-carboxylic acid]",1 nM,0.1 nM,,
"CCOc1cc2c(cc1OCC)-c1cc(=O)c(C(=O)O)cn1CC2 [Example 76, 9,10-diethoxy-2-oxo-6,7-dihydrobenzo[a]quinolizine-3-carboxylic acid]",,130 nM,,350 nM
"CCOc1cc2c(cc1OCC)-c1cc(=O)c(C(=O)O)cn1C(CC)C2 (stereo not drawn) [Example 5, 9,10-diethoxy-6-ethyl-2-oxo-6,7-dihydrobenzo[a]quinolizine-3-carboxylic acid]",18 nM,9 nM,,
"CCCOc1cc2c(cc1OC)-c1cc(=O)c(C(=O)O)cn1C(CC)C2 (single isomer, unassigned; (+)) [Example 79, (+)-6-ethyl-10-methoxy-2-oxo-9-propoxyl-6,7-dihydrobenzo[a]quinolizine-3-carboxylic acid]",4 nM,2 nM,,
"COCCCOc1cc2c(cc1Cl)-c1cc(=O)c(C(=O)O)cn1C(C(C)C)C2 (single isomer, unassigned; (+)) [Example 121, (+)-10-chloro-6-isopropyl-9-(3-methoxypropoxy)-2-oxo-6,7-dihydrobenzo[a]quinolizine-3-carboxylic acid]",2 nM,< 0.1 nM,,
"CCOc1cc2c(cc1OCC)-c1cc(=O)c(C(=O)O)cn1C(CC)C2 (single isomer, unassigned; (+)) [Example 6, (+)-9,10-diethoxy-6-ethyl-2-oxo-6,7-dihydrobenzo[a]quinolizine-3-carboxylic acid]",,,6 nM,
"COc1cc2c(cc1OCC(F)(F)F)CC(C(C)C)n1cc(C(=O)O)c(=O)cc1-2 (stereo not drawn) [Example 126, 6-isopropyl-10-methoxy-2-oxo-9-(2,2,2-trifluoroethoxy)-6,7-dihydrobenzo[a]quinolizine-3-carboxylic acid]",8 nM,,,
"COc1cc2c(cc1OCC(F)(F)CO)CC(C(C)(C)C)n1cc(C(=O)O)c(=O)cc1-2 (stereo not drawn) [Example 141, 6-tert-butyl-9-(2,2-difluoro-3-hydroxy-propoxy)-10-methoxy-2-oxo-6,7-dihydrobenzo[a]quinolizine-3-carboxylic acid]",,,,7 nM
"COc1cc2c(cc1OCCCCCNC(C)=O)CC(C(C)(C)C)n1cc(C(=O)O)c(=O)cc1-2 (stereo not drawn) [Example 175, 9-(5-acetamidopentoxy)-6-tert-butyl-10-methoxy-2-oxo-6,7-dihydrobenzo[a]quinolizine-3-carboxylic acid]",,,,33 nM
"CCC1Cc2cc(OCc3ccccc3)c(C)cc2-c2cc(=O)c(C(=O)O)cn21 (stereo not drawn) [Example 115, 9-benzyloxy-6-ethyl-10-methyl-2-oxo-6,7-dihydrobenzo[a]quinolizine-3-carboxylic acid]",29 nM,,,
"COCCOc1cc2c(cc1Cl)-c1cc(=O)c(C(=O)O)cn1C(CC(C)C)C2 (single isomer, unassigned; (+)) [Example 105, (+)-10-chloro-6-isobutyl-9-(2-methoxyethoxy)-2-oxo-6,7-dihydrobenzo[a]quinolizine-3-carboxylic acid]",16 nM,,,
"COCCCOc1cc2c(cc1Cl)-c1cc(=O)c(C(=O)O)cn1C(C(C)C)C2 (stereo not drawn) [Example 120, 10-chloro-6-isopropyl-9-(3-methoxypropoxy)-2-oxo-6,7-dihydrobenzo[a]quinolizine-3-carboxylic acid]",2 nM,,,
"CCC1Cc2cc(OCCS(C)(=O)=O)c(OC)cc2-c2cc(=O)c(C(=O)O)cn21 (stereo not drawn) [Example 53, 6-ethyl-10-methoxy-9-(2-methylsulfonylethoxy)-2-oxo-6,7-dihydrobenzo[a]quinolizine-3-carboxylic acid]",,,,1540 nM
"CCC1Cc2cc(OCc3ccccc3)c(C)cc2-c2cc(=O)c(C(=O)O)cn21 (single isomer, unassigned; (+)) [Example 116, (+)-9-benzyloxy-6-ethyl-10-methyl-2-oxo-6,7-dihydrobenzo[a]quinolizine-3-carboxylic acid]",33 nM,,,
"CCC1Cc2cc(Br)c(OC)cc2-c2cc(=O)c(C(=O)O)cn21 (stereo not drawn) [Example 92, 9-bromo-6-ethyl-10-methoxy-2-oxo-6,7-dihydrobenzo[a]quinolizine-3-carboxylic acid]",,,,230 nM
